Among the data in article PMC12040169 (PLOS Biology, 2025) are viability values, retold here.

By viability is commonly meant a read-out of living cells in per cent, often relative to untreated cells.

The series in a line: in vitro. To be noted: human, hela cells, % viability.
As to `CCOC(=O)N1CCN(S(=O)(=O)c2ccc3c(c2)oc(=O)n3C)CC1` [CBK304667], the viability at 28.5 h, 10 µM is 105%.
Consider `Cc1nc(S(=O)(=O)N2CCC(OCC3CC3)C2)cn1C` (centres unmarked) [CBK304668], for which the viability at 28.5 h, 10 µM was 102%.
As for `CC1=CCN(C(=O)c2cccc(S(=O)(=O)NCC3CCCO3)c2)CC1` (centres unmarked) [CBK304669], the figure is 95.5%; as for `CCC(CO)NCc1ccc(OCC(N)=O)cc1` (centres unmarked) [CBK304670], 100%; as for `Cc1ncsc1CCC(=O)NCC1CCN(c2ccccc2F)C1` (centres unmarked) [CBK304675], 96.5%.
Regarding `O=C(c1csc(-c2ccccc2)n1)N1CCn2nc(C3CC3)cc2C1` [CBK304676], the viability at 28.5 h, 10 µM worked out at 95.9%.
With `Cc1cnccc1N1CCN(C(=O)CCCOc2ccccc2)CC1` [CBK304677], the viability at 28.5 h, 10 µM turned out to be 94.8%.
With `Cc1cc(C)n(CCC(=O)N2CCCCC2C(=O)O)n1` (centres unmarked) [CBK304678] the figure was 103%.
On to `CCOC(=O)N1CCN(S(=O)(=O)c2ccc3[nH]c(=O)oc3c2)CC1` [CBK304679], for which the viability at 28.5 h, 10 µM turned out to be 105%.
For `Cc1ccn(-c2ccc(N3CCNCC3)nn2)n1` [CBK304680], the viability at 28.5 h, 10 µM stood at 97.4%.
As for `CC(=O)N1CCc2c(sc(NC(=O)c3ccccc3C)c2C#N)C1` [CBK304681], the figure is 78.7%; as for `CC1CCc2c(sc(NC(=O)c3ccn(C)n3)c2C#N)C1` (centres unmarked) [CBK304682], 89.8%.
With `CC1(C(=O)NS(=O)(=O)c2cccc(-c3nnco3)c2)CC1` [CBK304683] the figure was 106%.
With `Cc1sc2ncn(CC(=O)NCCc3c[nH]cn3)c(=O)c2c1C` [CBK304685] the figure was 99.3%; with `Cc1ccnc(SCC(=O)c2cc(C)n(C3CC3)c2C)n1` [CBK304686], 97.6%.
As for `Cn1nccc1CN1CCOC(c2nc(C(C)(C)C)cs2)C1` (centres unmarked) [CBK304690], the viability at 28.5 h, 10 µM came to 93.7%.
With `Cc1cc(N2CCOC(c3cccs3)C2)ccn1` (centres unmarked) [CBK304691], the viability at 28.5 h, 10 µM amounted to 96.2%.
With `CCN(CC)CCn1c(NC(=O)CCC2CCNC2)nc2ccccc21` (centres unmarked) [CBK304693] the figure was 92.3%; with `Cc1cc(-c2csc(CC(C)n3cc(Cl)cn3)n2)on1` (centres unmarked) [CBK304700], 91.3%; with `Cn1cc(CN2CCC(CNc3ccccn3)C2)cn1` (centres unmarked) [CBK304705], 101%.
Take `Cc1nc(C)c(-c2csc(CC(C)n3cc(Cl)cn3)n2)o1` (centres unmarked) [CBK304710]: the viability at 28.5 h, 10 µM turned out to be 106%.
As for `CCOC(=O)c1nc(C2CCN(c3cccc(F)c3C#N)CC2)n[nH]1` [CBK304711], the figure is 119%; as for `CC1CC1c1nnc(C2(c3ccc(Br)cc3)CCOCC2)o1` (centres unmarked) [CBK304712], 94.1%.
Turning to `Cn1nc(C(C)(C)C)c2cc(C(=O)N3CCCc4occc4C3)cnc21` [CBK304713], the viability at 28.5 h, 10 µM turned out to be 97.7%.
With `COc1cc(CNC2CCCc3c2cnn3C)c(O)c(C(C)(C)C)c1` (centres unmarked) [CBK304716] the figure was 84.4%; with `CCn1cc(S(=O)(=O)Nc2cccc(CCCC(=O)O)c2)cn1` [CBK304717], 102%; with `CN(c1cccc(C#N)c1)C1CCN(c2nccn(C)c2=O)C1` (centres unmarked) [CBK304718], 105%.
Take `COc1ccc(CC(=O)N2CCCC2c2nnc3ccccn23)cc1` (centres unmarked) [CBK304719]: the viability at 28.5 h, 10 µM was determined as 117%.
Take `CN(c1cccc(C#N)c1)C1CCN(c2ncnc3c2cnn3C)C1` (centres unmarked) [CBK304720]: the viability at 28.5 h, 10 µM was 87.4%.
With `COc1cc(CNCc2cnn(C)c2)c(O)c(C(C)(C)C)c1` [CBK304721] the figure was 85.8%; with `CCOCC(=O)N(C)C(CO)c1cc(OC)ccc1Br` (centres unmarked) [CBK304722], 90%; with `Fc1cc(Br)c(CNCc2ccno2)c(N2CCCCC2)c1F` [CBK304723], 86.8%.
As for `Nc1nc(O)cc(C2CCN(CCOc3ccccc3F)C2)n1` (centres unmarked) [CBK304726], the figure is 102%; as for `CCc1ccc2c(c1)C(CCNC(=O)c1ncccc1F)C(=O)N2` (centres unmarked) [CBK304727], 106%.
With `CCc1ccc2c(c1)C(CCNC(=O)c1cscc1C(F)(F)F)C(=O)N2` (centres unmarked) [CBK304728] the figure was 82.5%; with `O=S(=O)(c1sccc1F)N1CCOCC1c1cccc(F)c1` (centres unmarked) [CBK304730], 82.6%; with `N#Cc1cnccc1N1CC2COCCC2(C(=O)N2CCCC2)C1` (centres unmarked) [CBK304731], 83%.
Take `CC(C)n1cc(CN2CCNC(=O)C2c2ccccc2C(F)(F)F)nn1` (centres unmarked) [CBK304732]: the viability at 28.5 h, 10 µM amounted to 91.6%.
Regarding `Cc1c(C(=O)N2CCC(CN)C2)nnn1-c1ccc2ncccc2c1` (centres unmarked) [CBK304734], the viability at 28.5 h, 10 µM is 101%.
Regarding `CC1CN(Cc2cccc(CNc3nccnc3C#N)c2)CCO1` (centres unmarked) [CBK304736], the viability at 28.5 h, 10 µM was determined as 94%.
For `COCc1nc2n(n1)CC(NC1CCc3ccccc3CC1)CC2` (centres unmarked) [CBK304737], the viability at 28.5 h, 10 µM is 96.1%.
With `Cc1c(C(=O)N(CC(=O)O)C2CC2)nnn1-c1ccc(Cl)cc1F` [CBK304738] the figure was 91.1%; with `CC(C)(C#N)c1ccccc1CN1CCCCC1c1[nH]ncc1C(N)=O` (centres unmarked) [CBK304740], 108%.
With `CC1=CCCN(C(=O)C23CCOCC2CN(c2ncccn2)C3)C1` (centres unmarked) [CBK304743] the figure was 101%.
With `N#Cc1cccnc1N1CC2COCCC2(C(=O)N2CCC=C(F)C2)C1` (centres unmarked) [CBK304744] the figure was 91.5%; with `NC1CCCN(C(=O)c2ccc(Oc3cccc(Br)c3)nc2)C1` (centres unmarked) [CBK304747], 92.6%.
`Cc1csc(N2CCC(NC3COc4ccc(F)cc4C3)CC2)n1` (centres unmarked) [CBK304751]: the viability at 28.5 h, 10 µM amounted to 101%.
With `CCOc1cc(NC2CCN(C(=O)Cc3ccncc3)CC2)ncn1` [CBK304752] the figure was 101%; with `Cc1noc(C2(O)CCN(CCc3ccc(F)c(F)c3)C2)n1` (centres unmarked) [CBK304753], 93.9%.
As for `CC1CN(c2cc(CO)c(F)cn2)CC2(CCOC2C)O1` (centres unmarked) [CBK304754], the figure is 101%.
As for `CCOCC1CN(c2cc(CO)c(F)cn2)CCO1` (centres unmarked) [CBK304756], the figure is 92%.
Turning to `CCC1CN(c2cc(CO)c(F)cn2)CC2(CCOC2)O1` (centres unmarked) [CBK304757], the viability at 28.5 h, 10 µM came out at 92.9%.
With `CCn1cc(CN2CCCN(C(=O)c3ccc(Cl)cn3)CC2)cn1` [CBK304760] the figure was 84.3%.
For `CCCC(=O)N1CCn2c(nnc2-c2cncc(Br)c2)C1` [CBK304761], the viability at 28.5 h, 10 µM amounted to 93.4%.
As to `Cn1ccc(CNCc2c(Br)cc(F)c(F)c2N2CCCCC2)n1` [CBK304763], the viability at 28.5 h, 10 µM amounted to 105%.
On to `CCCC(=O)Nc1ccc(OCc2cnccn2)c(C(C)=O)c1` [CBK304766], for which the viability at 28.5 h, 10 µM stood at 102%.
As for `O=C(CCCC1CC1)N1CCn2c(nnc2-c2cncc(Br)c2)C1` [CBK304767], the figure is 96.4%; as for `COCC1CN(S(=O)(=O)c2cnc3ccsc3c2)C1` [CBK304768], 72.4%.
With `Cc1ccc(Cl)c(OC(C)C(=O)N2CCOC(CC(=O)O)C2)c1` (centres unmarked) [CBK304769], the viability at 28.5 h, 10 µM turned out to be 93%.
Take `CC1CN(c2cc(CO)c(F)cn2)CC2(CCOC2)O1` (centres unmarked) [CBK304772]: the viability at 28.5 h, 10 µM turned out to be 93.8%.
Turning to `OCc1cc(N2CCOC3(CCCOC3)C2)ncc1F` (centres unmarked) [CBK304774], the viability at 28.5 h, 10 µM came out at 94.7%.
As for `Cn1nnc2cc(NCC3(CNC(=O)OC(C)(C)C)CC3)ccc21` [CBK304777], the figure is 89.1%.
With `CCN(Cc1cnn(C)c1)S(=O)(=O)c1ccc2c(c1)CCCC(=O)N2` [CBK304782] the figure was 100%; with `Cn1cc(CN2CCOC(c3nc(C(C)(C)C)cs3)C2)nn1` (centres unmarked) [CBK304783], 90.5%.
Regarding `CCn1cc(CN2CCCN(C(=O)c3cn4ccccc4n3)CC2)cn1` [CBK304784], the viability at 28.5 h, 10 µM was 98.3%.
Take `CN(Cc1ccc(Br)cc1Cl)C(=O)c1cn[nH]c1C1CCNC1` (centres unmarked) [CBK304785]: the viability at 28.5 h, 10 µM is 93.5%.
As for `Cc1cc(C)cc(OCC(=O)Nc2c(C#N)c(C)nn2C)c1` [CBK304791], the figure is 110%; as for `Cc1ccnc(N2CCOC3(CCCC3)C2)n1` [CBK304794], 93.1%; as for `Cn1cc(CC2CCN(Cc3ccncc3)C2)cn1` (centres unmarked) [CBK304796], 107%.
Consider `Cc1csc(CC(C)n2cc(Cl)cn2)n1` (centres unmarked) [CBK304797], for which the viability at 28.5 h, 10 µM was found to be 99.8%.
As for `CCC(CNC(=O)c1ccoc1C)N1CCCC1` (centres unmarked) [CBK304798], the figure is 88.9%; as for `CCCc1csc(C2CN3CCCC3CO2)n1` (centres unmarked) [CBK304799], 88.3%.
With `CCCNC(=O)CN(C)Cc1cn2cccc(C)c2n1` [CBK304800] the figure was 85.2%; with `CC(=O)Nc1cccc(CN(CCCCO)C2CC2)c1` [CBK304806], 91.6%.
For the compound `CC(=O)NCCCSCc1cn2cccc(C)c2n1` [CBK304809], the viability at 28.5 h, 10 µM is 98.5%.
Consider `Cc1nc(C(=O)N(CCO)Cc2ccccc2)cs1` [CBK304810], for which the viability at 28.5 h, 10 µM worked out at 105%.
Consider `COCC(C)N(C)S(=O)(=O)c1ccc(Cl)nc1` (centres unmarked) [CBK304813], for which the viability at 28.5 h, 10 µM was found to be 95.2%.
In the case of `CCC1CCCCN1C(=O)c1ccc(NC2CC2)nc1` (centres unmarked) [CBK304815], the viability at 28.5 h, 10 µM was 92.2%.
With `Cc1cc(C)n(CCCNC(=O)Nc2cccnc2)n1` [CBK304820] the figure was 84.6%; with `Cc1nnc(CN(CC2CCCO2)C2CCC(C)CC2)o1` (centres unmarked) [CBK304824], 94.7%.
With `Cc1nn(C)c(Cl)c1CN(CCC#N)Cc1ccco1` [CBK304825] the figure was 96.6%; with `Cc1noc(C)c1CN(C)C(C)C(=O)Nc1nccs1` (centres unmarked) [CBK304826], 105%; with `COc1ccc(CCNC(=O)CN2CCCCC2C)cc1` (centres unmarked) [CBK304827], 94.4%.
As for `Cc1nc(CCNCc2c(C)nn(C)c2N(C)C)cs1` [CBK304828], the figure is 88.3%; as for `Cc1cnn(C2CCCN(C(=O)Cc3cccs3)C2)c1` (centres unmarked) [CBK304832], 102%; as for `CC(=O)Nc1cccc(CN(CCCO)c2ccccc2)c1` [CBK304833], 97.1%.
